{"source": "paper PMC8597757", "about": "“Pharmacokinetic and Safety Profile of the Novel HIV Nonnucleoside Reverse Transcriptase Inhibitor MK-8507 in Adults without HIV” (Antimicrobial Agents and Chemotherapy, 2021)", "tested_on": "CYP3A4", "test": "Midazolam drug-drug interaction assessment", "conditions": "2 mg midazolam with third once-weekly 400-mg dose of MK-8507 vs midazolam alone", "protocol": "Study 2 (protocol MK-8507-002) was a randomized, serial, 3-panel (A to C), single- and multiple-QW rising-dose trial. Single doses of 400, 800, and 1,200 mg MK-8507 or placebo tablet formulation were administered on day 1 to panels A, B, and C, respectively, to continue dose escalation beyond the dose range in study 1. Following a washout period of 3 weeks, the multiple-dose portion of the trial began. Participants in panels A, B, and C received QW doses of 100, 200, or 400 mg MK-8507 or placebo for 3 weeks (i.e., on days 22, 29, and 36), respectively. […] The PK profile of midazolam following a single oral dose alone or after multiple oral dose administration of MK-8507 was also evaluated. […]\nPlasma samples collected for midazolam assay were analyzed by Syneos Health (Québec, Canada). […] The lower limit of quantitation was 20.00 pg/mL, and the analytical range was 20.00 to 20,000.00 pg/mL.\nPK parameter values were calculated by noncompartmental analyses using the software Phoenix WinNonlin Professional (version 6.3) (Certara, Princeton, NJ, USA). […] AUC0–∞ and AUC0–168hr were calculated using the linear-trapezoidal method for ascending concentrations and the log-trapezoidal method for descending concentrations (linear up/log down). […]", "data": [{"smiles": "Cc1ncc2n1-c1ccc(Cl)cc1C(c1ccccc1F)=NC2", "note": "[Midazolam, midazolam]", "values": [{"measurement": "decrease in midazolam AUC when coadministered with MK-8507", "result": 12, "unit": "%"}, {"measurement": "decrease in midazolam Cmax when coadministered with MK-8507", "result": 19, "unit": "%"}]}]}
